Experimental data as given in publication PMC5537589, “A peptide-based viral inactivator inhibits Zika virus infection in pregnant mice and fetuses” (Nature Communications, 2017).
Where no end group is shown, it is not given here.

Key:
ZIKV = assay: Plaque reduction assay in BHK21 cells; assay type: cell-based, Zika virus; settings: n=3
Protocol: Supplementary Figure 2: Plaque reduction assay to determine ZIKV infection in BHK21 cells. (a) Plaque reduction assay for Z2. ZIKV was incubated with Z2 or Z2-scr in diﬀerent concentrations for 1.5 h. Then the mixture was added to BHK21 cells seeded in 6-well plates. After 1.5 h, the viral inoculum was removed and 2.5 ml DMEM with 2% FBS and 1% low melting-point agarose overlaid the cells. Four to five days later, the cells were fixed with 4% PFA and stained with 1% crystal violet overnight. (b) Plaque reduction curves. Plaques were counted and percentage of plaque reduction was […]

DENV-2 = settings: 12 h
YFV 17D = settings: read-out: IC50, inhibition of YFV 17D infection; BHK21 cells
[1] = Safety of Z2 for pregnant ICR mice and fetuses; assay type: in vivo
[2] = rat, in vivo, iv, 10 mg/kg
BHK21 cells = settings: concentration as high as 50 μM, 24 h, 37 °C, CCK8
Vero cells = settings: concentration as high as 50 μM, 24 h, 37 °C, CCK8
Huh7 cells = settings: concentration as high as 50 μM, 24 h, 37 °C, CCK8
mouse red blood cells = settings: concentration as high as 100 μM; 2% mouse RBC, 1 h, 37 °C; A560
[3] = 100 μg Z2-Cy5 i.v.; male ICR mice
[4] = SD rats, n=3, serum
in vivo = settings: SD, rat, iv, 10 mg kg-1
[5] = In vivo fluorescence imaging of distribution in pregnant ICR mice and fetuses
ZIKV virions = assay: Sucrose density gradient assay; settings: 100 μM peptide in 1% DMSO or 1% Triton X-100, 37 °C 2 h
[6] = system: ZIKV-infected BHK21 cells; assay type: binding, Zika virus; settings: peer review file
Protocol: Supplementary Figure 4: Binding of Z2-Cy5 to ZIKV-infected BHK21 cells. (a) Immunofluorescence staining assay.
Scale bar = 100 μm. (b) Flow cytometry assay. After the incubation of ZIKV or mock infected BHK21 cells with Z2-Cy5, the cells were washed five times and processed by a BD Accuri C6 Flow Cytometer.
BHK21 cells. As shown in Supplementary Figure 4, E protein (green, stained by anti-E mAb 4G2) and Z2-Cy5 (red) overlapped and colocated together (Supplementary Figure 4A). In the flow cytometry assay (Supplementary Figure 4B), Z2-Cy5 bound with 63.5% […]
ZIKV-infected BHK21 cells.
Supplementary Figure 4: Binding of Z2-Cy5 to ZIKV-infected BHK21 cells. (A) […]
Scale bar = 100 μm. (B) Flow cytometry assay. After the incubation of ZIKV- or mock- […]
The result was added to the revised manuscript: “Similar results were […]
obtained from ZIKV-infected BHK21cells (Supplementary Figure 4).”
The related methods were added in the revised manuscript:
“To test the binding of Z2 to ZIKV- infected BHK21 cells, BHK21 cells seeded in cover slips were ZIKV or mock infected, fixed with 4 % PFA, perforated by 0.2% Triton X-100 and blocked with 3% BSA. The cells were then incubated with anti-E mAb 4G2.
After 5 washes, the cells were incubated with Alexa Fluor 488-labeled donkey anti-mouse antibody and Z2-Cy5 at RT for 1 h. […]

[7] = 10-120 mg kg−1 i.v., before and 4 h, 1, 3, 5 days after third injection, P>0.05

Substance: MAVLGDTAWDFGSVGGALNSLGKGIHQIFGAAF [Z2] [listing 1 of 2 here]
- IC50 (ZIKV): 2.61 ± 0.46 µM
- IC50 (DENV-2): ~4 µM
- IC50 (YFV 17D): ~5 µM

Substance: MAVLGDTAWDFGSVGGALNSLGKGIHQIFGAAF [Z2] [listing 2 of 2 here]
- average litter size of the offspring ([1]; 10 mg kg−1 i.v. daily for 3 days, n=5, PBS 10.4±1.5): 10.2±1.6
- average litter size of the offspring ([1]; 20 mg kg−1 i.v. daily for 3 days, n=6): 10.5±2.0
- average litter size of the offspring ([1]; 40 mg kg−1 i.v. daily for 3 days, n=5): 10.4±2.1
- average litter size of the offspring ([1]; 80 mg kg−1 i.v. daily for 3 days, n=5): 10.6±1.1
- average litter size of the offspring ([1]; 120 mg kg−1 i.v. daily for 3 days, n=5): 10.8±2.6
- safe dose relative to dose protecting against ZIKV in vivo ([1]; 120 mg kg−1 versus 10 mg kg−1): 11 fold
- serum ALT versus PBS group [1, 7]: no significant difference
- serum creatinine versus PBS group [1, 7]: no significant difference
- histopathology (H&E) of livers, kidneys, brains, spleens of mothers and pups ([1]; 10-120 mg kg−1 i.v., versus PBS): no pathological abnormality
- body weight changes of mothers and pups ([1]; i.v. 10, 20, 40, 80, 120 mg kg−1 daily for 3 days versus PBS): almost the same among the six groups
- AUC(0-inf) [2]: 557 ng·h/mL
- AUC(0-t) [2]: 548 ng·h/mL
- Tmax [2]: 0.25 h
- cytotoxic effect (BHK21 cells): no cytotoxic effect
- cytotoxic effect (Vero cells): no cytotoxic effect
- cytotoxic effect (Huh7 cells): no cytotoxic effect
- cytotoxic effect on red blood cells (hemoglobin release) (mouse red blood cells): no cytotoxic effect
- distribution to genital organs (testis, seminal vesicle, epididymis) [3]: could distribute to the genital organs
- Kel, elimination constant ([4]; 10 mg kg-1 i.v. tail vein, LC-MS/MS, noncompartmental): 0.250 h⁻¹
- Cmax ([4]; 10 mg kg-1 i.v., concentration data dose-normalized): 754.6 ng/mL
- half-life (in vivo): 2.77 h
- penetration of the placental barrier ([5]; injected intravenously or intraperitoneally, pregnant ICR mice): can penetrate through the placental barrier

Substance: Triton X-100
- fraction with peak of viral genomic RNA (ZIKV virions; RT-qPCR): 1 fraction No.
- fraction with peak of E protein (ZIKV virions; western blot): 7 fraction No.

Substance: Z2-Cy5: Z2 labeled with Cy5 (MAVLGDTAWDFGSVGGALNSLGKGIHQIFGAAF; also: Cy5 label, site not given here)
- ZIKV-infected BHK21 cells bound by Z2-Cy5 (flow cytometry) [6]: 63.5%
- average radiant efficiency in uteruses versus PBS ([5]; 100 μg i.v., 1 h, P=0.0148): significantly higher
- average radiant efficiency in liver versus PBS ([5]; 100 μg i.v., 1 h, P=0.0275): significantly higher
- average radiant efficiency in bladder versus PBS ([5]; 100 μg i.v., 1 h, P=0.0426): significantly higher
- average radiant efficiency in fetuses versus PBS ([5]; 100 μg i.v., 1 h, n=9 fetuses, P<0.0001): significantly higher
